Experimental data reported in the supplement of paper PMC10307832.

What was measured:
Test in all cases: relative viability (nuclei count vs DMSO), 5 days (fraction); higher = more cells survive
Linifanib + Crizotinib = compound: Cc1ccc(F)c(NC(=O)Nc2ccc(-c3cccc4[nH]nc(N)c34)cc2)c1 [Linifanib] + C[C@@H](Oc1cc(-c2cnn(C3CCNCC3)c2)cnc1N)c1c(Cl)ccc(F)c1Cl [Crizotinib] (partner 1 µM)
Summary of the method: (§1)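 Lung cancer cell lines in 1536-well plates got either a single drug or a fixed anchor-drug dose together with five library-drug doses (not always all listed) in √10 steps, by pin tool, on the day after seeding. Nuclei were counted after 5 days, and relative viability is the treated-to-vehicle ratio of nuclei counts. Values are medians of duplicate plates.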

Linifanib + Bortezomib = compound: Cc1ccc(F)c(NC(=O)Nc2ccc(-c3cccc4[nH]nc(N)c34)cc2)c1 [Linifanib] + CC(C)C[C@H](NC(=O)[C@H](Cc1ccccc1)NC(=O)c1cnccn1)B(O)O [Bortezomib] (partner 0.002 µM)
Summary of the method: as §1

Linifanib + Trametinib = compound: Cc1ccc(F)c(NC(=O)Nc2ccc(-c3cccc4[nH]nc(N)c34)cc2)c1 [Linifanib] + CC(=O)Nc1cccc(-n2c(=O)n(C3CC3)c(=O)c3c(Nc4ccc(I)cc4F)n(C)c(=O)c(C)c32)c1 [Trametinib] (partner 0.02 µM)
Summary of the method: as §1

Linifanib + Decitabine = compound: Cc1ccc(F)c(NC(=O)Nc2ccc(-c3cccc4[nH]nc(N)c34)cc2)c1 [Linifanib] + Nc1ncn([C@H]2C[C@H](O)[C@@H](CO)O2)c(=O)n1 [Decitabine] (partner 2 µM)
Summary of the method: as §1

Linifanib + Luminespib = compound: Cc1ccc(F)c(NC(=O)Nc2ccc(-c3cccc4[nH]nc(N)c34)cc2)c1 [Linifanib] + CCNC(=O)c1noc(-c2cc(C(C)C)c(O)cc2O)c1-c1ccc(CN2CCOCC2)cc1 [Luminespib] (partner 0.01 µM)
Summary of the method: as §1

Linifanib + Tozasertib = compound: Cc1ccc(F)c(NC(=O)Nc2ccc(-c3cccc4[nH]nc(N)c34)cc2)c1 [Linifanib] + Cc1cc(Nc2cc(N3CCN(C)CC3)nc(Sc3ccc(NC(=O)C4CC4)cc3)n2)n[nH]1 [Tozasertib] (partner 0.1 µM)
Summary of the method: as §1

Cell Line	relative viability (Linifanib + Crizotinib; first compound 0.03162 µM)	relative viability (Linifanib + Crizotinib; first compound 0.1 µM)	relative viability (Linifanib + Crizotinib; first compound 0.3162 µM)	relative viability (Linifanib + Bortezomib; first compound 0.03162 µM)	relative viability (Linifanib + Bortezomib; first compound 0.1 µM)	relative viability (Linifanib + Bortezomib; first compound 0.3162 µM)	relative viability (Linifanib + Trametinib; first compound 0.03162 µM)	relative viability (Linifanib + Trametinib; first compound 0.1 µM)	relative viability (Linifanib + Trametinib; first compound 0.3162 µM)	relative viability (Linifanib + Decitabine; first compound 0.03162 µM)	relative viability (Linifanib + Decitabine; first compound 0.1 µM)	relative viability (Linifanib + Decitabine; first compound 0.3162 µM)	relative viability (Linifanib + Luminespib; first compound 0.03162 µM)	relative viability (Linifanib + Luminespib; first compound 0.1 µM)	relative viability (Linifanib + Luminespib; first compound 0.3162 µM)	relative viability (Linifanib + Tozasertib; first compound 0.03162 µM)	relative viability (Linifanib + Tozasertib; first compound 0.1 µM)	relative viability (Linifanib + Tozasertib; first compound 0.3162 µM)
201T	0.999	1.02	1.04	1.05	1.09	1.08	0.746	0.736	0.758	0.867	0.862	0.891	1.1	1.06	1.03	0.971	0.965	0.942
A-427	0.964	0.983	0.83	1.04	1.05	0.949	0.755	0.806	0.836	0.583	0.612	0.579	0.912	1.09	0.814	0.227	0.204	0.197
ABC-1	1.28	1.27	0.996	0.25	0.343	0.285				0.961	0.942	0.95	0.497	0.558	0.783	0.152	0.173	0.176
BEN	0.897	0.924	0.791	0.723	0.975	0.778	0.929	0.946	1.1	0.772	0.818	0.696	0.276	0.49	0.233	0.446	0.441	0.484
CAL-12T	0.835	0.692	0.698	1.06	1.01	0.8	0.338	0.463	0.357				0.438	0.751	0.364	0.333	0.348	0.355
COR-L23	0.716	0.657	0.531	1.12	1.17	0.831	0.666	0.689	0.578	0.448	0.455	0.396	0.673	0.892	0.705	0.181	0.228	0.141
COR-L 105	0.796	0.941	0.797	0.954	0.851	0.735	0.444	0.451	0.45	0.602	0.73	0.585	0.807	0.889	0.556	0.334	0.321	0.336
ChaGo-K-1	1.13	1.14	1.08	0.946	1.18	0.926	0.904	0.942	0.86	0.497	0.531	0.509	0.636	0.777	0.563	0.239	0.245	0.228
EKVX	0.939	1.01	0.875	0.863	1.03	0.698	0.381	0.411	0.392	0.314	0.359	0.35	0.838	0.962	0.854	0.477	0.448	0.338
EMC-BAC-2	0.837	0.791	0.733	1.11	1.13	1.12	1.01	0.993	0.875	1.01	1.03	0.951	1.2	1.19	1.14	0.296	0.266	0.302
EPLC-272H	0.813	0.913	0.826	1.21	1.04	0.785	0.254	0.292	0.274	0.352	0.435	0.362	0.405	0.392	0.419	0.346	0.209	0.181
H3255	0.865	0.892	0.85	0.809	0.781	0.728	0.629	0.698	0.554	0.559	0.667	0.615	0.85	0.94	0.976	0.767	0.662	0.601
HARA	1.09	1.18	0.975	1.14	1.11	1.06	0.813	0.809	0.591	0.599	0.61	0.61	1.12	0.651	0.707	0.094	0.117	0.0893
HCC-15	0.855	0.86	0.779	1.04	0.99	0.988	0.346	0.409	0.365	0.745	0.693	0.629	0.387	0.278	0.3	0.39	0.406	0.436
HCC-44	0.839	0.831	0.733	0.925	0.915	0.818	1.05	1.07	1.03	0.984	0.862	0.961	0.903	0.954	1.05	0.558	1.05	0.812
HCC-78	0.373	0.376	0.319	0.455	0.429	0.472	0.657	0.692	0.805	0.784	0.752	0.717				0.493	0.519	0.371
HCC-366	0.558	0.69	0.454	1	1.1	1.02	0.4	0.391	0.399	0.417	0.328	0.336				0.0836	0.0997	0.105
HCC-827	0.957	0.957	0.884	1.04	0.991	0.977	0.559	0.522	0.514	0.32	0.31	0.331	0.549	0.669	0.622	0.442	0.419	0.384
HOP-62	0.924	1.04	0.968	0.617	0.969	0.728	0.412	0.439	0.355	0.194	0.197	0.2	0.927	0.964	0.866	0.36	0.401	0.35

Cell Line	relative viability (Linifanib + Crizotinib; first compound 0.03162 µM)	relative viability (Linifanib + Crizotinib; first compound 0.1 µM)	relative viability (Linifanib + Crizotinib; first compound 0.3162 µM)	relative viability (Linifanib + Bortezomib; first compound 0.03162 µM)	relative viability (Linifanib + Bortezomib; first compound 0.1 µM)	relative viability (Linifanib + Bortezomib; first compound 0.3162 µM)	relative viability (Linifanib + Trametinib; first compound 0.03162 µM)	relative viability (Linifanib + Trametinib; first compound 0.1 µM)	relative viability (Linifanib + Trametinib; first compound 0.3162 µM)	relative viability (Linifanib + Decitabine; first compound 0.03162 µM)	relative viability (Linifanib + Decitabine; first compound 0.1 µM)	relative viability (Linifanib + Decitabine; first compound 0.3162 µM)	relative viability (Linifanib + Luminespib; first compound 0.03162 µM)	relative viability (Linifanib + Luminespib; first compound 0.1 µM)	relative viability (Linifanib + Luminespib; first compound 0.3162 µM)	relative viability (Linifanib + Tozasertib; first compound 0.03162 µM)	relative viability (Linifanib + Tozasertib; first compound 0.1 µM)	relative viability (Linifanib + Tozasertib; first compound 0.3162 µM)
LC-2-ad	0.588	0.404	0.381	0.976	1.23	0.98	0.87	0.924	0.824	0.759	0.799	0.836	0.968	0.958	1.05	0.416	0.445	0.472
LCLC-97TM1	0.43	0.456	0.362	0.866	0.868	0.56	0.2	0.179	0.16	0.222	0.228	0.249	0.721	0.766	0.595	0.205	0.231	0.189
LCLC-103H	1.05	1.2	0.943	1.19	1.16	1.15	0.721	0.669	0.64	0.75	0.667	0.696	0.971	0.973	0.889	0.482	0.461	0.423
LK-2	0.216	0.195	0.219				0.707	0.769	0.742	0.305	0.365	0.224	0.189	0.201	0.232	0.155	0.177	0.2
LOU-NH91	0.74	0.767	0.769	0.47	0.548	0.463	0.775	0.798	0.762	0.812	0.785	0.814	0.394	0.324	0.319	0.713	0.693	0.68
LU99A	0.61	0.57	0.558	1.13	1.16	1.21	0.558	0.582	0.587	0.932	1.02	0.824	0.205	0.246	0.268	0.277	0.306	0.317
LXF-289	0.887	0.855	0.742	1.04	1.01	0.952	0.749	0.695	0.624	0.376	0.355	0.326	0.766	0.866	0.674	0.185	0.173	0.172
NCI-H23	0.555	0.463	0.506	1.03	1.2	1.16	0.399	0.487	0.396	0.355	0.308	0.343	0.238	0.217	0.225	0.366	0.39	0.329
NCI-H358	0.502	0.762	0.51				0.121	0.121	0.137	0.231	0.218	0.213	0.366	0.374	0.416	0.113	0.112	0.106
NCI-H1395							0.943	0.882	0.933	0.725	0.753	0.698	0.684	0.824	0.622	0.691	0.725	0.729
NCI-H1792	0.941	1.06	0.984	0.93	0.975	0.937	0.389	0.459	0.439	0.525	0.643	0.464	0.331	0.353	0.464			
NCI-H1793							0.372	0.56	0.434	0.486	0.412	0.586	0.169	0.173	0.199	0.253	0.467	0.372
NCI-H1944	1.1	1.12	0.997				0.427	0.416	0.381	0.425	0.449	0.415	0.67	0.727	0.733	0.249	0.261	0.259
NCI-H2170	1.33	1.35	1.11				0.922	0.855	0.937	0.472	0.448	0.453	0.686	0.844	0.741	0.706	0.716	0.712
NCI-H2228	0.496	0.508	0.453	0.815	1.32	0.959	0.511	0.719	0.587				0.15	0.155	0.17	0.206	0.233	0.295
NCI-H2342							0.848	0.744	0.878	0.732	0.713	0.768	0.736	0.766	0.613	0.544	0.492	0.529
SK-MES-1	1.01	1.03	0.81				0.528	0.568	0.507	0.352	0.408	0.36	0.79	0.769	0.639	0.882	1.06	0.819
SW 900							0.76	0.83	0.912	0.478	0.515	0.474	0.168	0.172	0.153	0.392	0.614	0.692
